In publication PMC6173696, “Structural properties of a haemophore facilitate targeted elimination of the pathogen Porphyromonas gingivalis” (Nature Communications, 2018):

Experiments:
HusA [1] = molecular target: T1, HusA (Porphyromonas gingivalis, UniProt Q7MSY3); assay: Tryptophan fluorescence quenching assay, HusA wild-type; format: binding; conditions: HusA wild-type 1 µM, fit to 1:1 binding model; read-out: Kd
T1 sequence (Q7MSY3 24-218): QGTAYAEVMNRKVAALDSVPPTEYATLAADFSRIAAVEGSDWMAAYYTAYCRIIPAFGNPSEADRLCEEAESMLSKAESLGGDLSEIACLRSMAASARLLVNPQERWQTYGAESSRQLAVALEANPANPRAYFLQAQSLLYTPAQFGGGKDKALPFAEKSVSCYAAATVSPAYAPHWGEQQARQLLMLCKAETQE
Experimental: The quenching of intrinsic tryptophan fluorescence of HusA upon porphyrin additions was measured using a Carey Eclipse Fluorescence Spectrophotometer (Agilent) set to a photo multiplier effect (PME) of 850. A 5-mm path length quartz cuvette was used and all spectra were acquired at room temperature. Excitation was set to 295 nm and emission was measured from 300 nm to 500 nm using excitation/emission slit widths of 5 nm. Binding assays were performed at a protein concentration of 1 μM HusA in standard buffer at a working volume of 0.5 mL. […] The fluorescence quenching of HusA by PPIX was investigated in a similar manner with the following difference: the fluorescence intensities of ten 1 μM HusA samples were measured each with increasing amounts of PPIX after a 2-h incubation period to allow equilibrium to be reached. See Supplementary Methods for correction for inner filter effect and curve fitting. […]
Correction of inner filter effect and curve fitting in tryptophan fluorescence quenching assays The concentration of NATA was chosen such that the raw fluorescence intensity was similar to the […] concentrations of HusA and mutants used. The same molarity titrants of porphyrin were titrated into NATA as were added into HusA in the control reactions. Fluorescence intensity was scaled with respect to the starting florescence and corrected for the inner filter effect. Fluorescence at 335 nm was used to fit binding curves.
The correction method is based on Fonin AV., et al.26, noting that a Cary Eclipse spectrofluorimeter […]
performed to measure the contribution to the decrease in fluorescence due to the inner filter effect and this effect was scaled to the starting fluorescence values as fractional changes. The measured fluorescence at each titration point for each of the porphyrin titrations into protein was then adjusted for this contribution. Fluorescence at 335 nm was used to fit binding curves. Association constant, Ka, was fitted using the following equation in Origin, assuming a single binding site. A dissociation constant, Kd, was calculated by taking the inverse of the Ka.
Xobs = XA×f A+XAB×f AB (1) where XA is the corrected fluorescence, fA=1-fAB, fAB=x/(Bt), x=(-b-sqrt(b2-4×c))/2, b=-(1/Ka+At+Bt), c=Bt×At, Bt=total concentration of protein, At=total concentration of ligand.
To aid comparison of the different titrations, the corrected fluorescence was scaled to the starting fluorescence in the absence of porphyrins (i.e. all fluorescence curves have a starting value of one

[2] = system: P. gingivalis wild-type W83; assay: Checkerboard / broth micro-dilution assay (MIC, MBC), wild-type W83; format: cell-based, Porphyromonas gingivalis; conditions: Porphyromonas gingivalis; planktonic W83, 24 h, anaerobic; read-out: minimal inhibitory concentration
Source text: Fig. 5 A prototype DPIX-conjugated antibiotic binds HusA and inhibits P. gingivalis. a The chemical structure of the deuteroporphyrin-lysine-metronidazole adduct, P8. b NMR signal intensity changes (black) and ^1H^N CSPs (red/green) for HusA upon addition of P8 (measured from ^15N-HSQC spectra shown in Supplementary Figure 21). c In silico docking of P8 to the energy minimized structure of HusA (conformer set 1), with residues experiencing NMR signal loss (orange) or CSPs (red/green) mapped to the structure (colouring as described in Fig. 2d). d Scaled and corrected fluorescence at 335 nm during titration of 1 μM of HusA with increasing concentrations of P8, haemin or DPIX. e Comparison of P8 inhibitory effect towards P. gingivalis wild-type W83 and husA mutants using checkerboard analysis. Serial dilutions of antibiotics (horizontal axis) were applied to a 96-well plate with different P. gingivalis strains (vertical axis). Serial dilutions of DPIX were also supplemented into wild-type W83 group to evaluate the competitive effect against P8. Absorption at OD600 of each well was recorded after 24 h of incubation. The OD600 of each strain grown in the absence of antibiotics was defined as 100% growth, which was applied to normalise the reading collected from other wells. The normalised percentage of each well was plotted in the checkerboard. Metronidazole alone and in combination with PPIX or DPIX was applied as control. f Intracellular killing assay of P8 antibiotics. Gingival H413 epithelial cells were infected by P. gingivalis W83 and then treated with P8 at various concentrations. Recovered bacteria were determined by CFU count. Metronidazole and DMSO were used as control. Three independent experiments with triplicate assays were conducted. […]

[3] = system: P. gingivalis wild-type W83; assay: Checkerboard analysis of metronidazole with PPIX or DPIX, iron-replete and -limited; format: cell-based, Porphyromonas gingivalis; conditions: iron replete or iron-limited conditions
Experimental: Supplementary Figure 24. Comparison of metronidazole inhibitory effect towards P. gingivalis wild-type W83 in the presence of PPIX or DPIX under iron-replete and -limited conditions by checkerboard analysis. Serial dilutions of antibiotics along the horizontal axis were applied to a 96-well plate with P. gingivalis W83. Two pre-determined concentrations of PPIX or DPIX were supplemented to evaluate the synergistic effect between metronidazole and porphyrins. Dipyridyl (at 100 µM) was also applied to explore the potential effect under iron-replete and iron-depleted conditions. Absorption at OD600 of each well was recorded after 24 h of incubation. The OD600 of each strain grown in the absence of antibiotics was defined as 100% growth which was applied to normalise the reading collected from other wells. The normalised percentage of each well was plotted […]
(1 picture or pasted object on this page, not shown here)

HusA [4] = molecular target: T1, HusA; assay: UV-visible absorption spectral analysis of ligand interaction with HusA; format: binding
Experimental: All absorbance spectra were recorded at room temperature using 10-mm quartz cuvettes on a Shimadzu UV-1601 or Jasco V-630 spectrophotometer. Mixtures of HusA/mutant with porphyrins were prepared by dissolving porphyrin stocks in standard buffer to a final concentration of 5–20 μM with a 1–1.5 molar ratio of protein to porphyrin, as specified in the relevant figure legends. PPIX:HusA mixtures were prepared by incremental addition of 2–4 μM HusA with a 10–15 min wait after each addition of HusA.

P. gingivalis W83 = assay: Growth of starved W83 with titration of dipyridyl; format: cell-based, Porphyromonas gingivalis
Source text: This manuscript further describes HusA protein. Although very sophisticated methods were used and interesting results were gained, this study requires more work to be convincing. The conclusions drawn (mainly regarding the possibility that porphyrin-metronidazole conjugate could be used to treat P. gingivalis infection) are very strong but not supported enough by the data presented.
- How is this possible that P. gingivalis grows in the culture medium lacking iron (dipyridyl added) and supplemented with porphyrins without metal inside the porphyrin ring (Fig 1, panel A)? What serves as an iron source allowing P. gingivalis to grow? Were the bacteria starved before these experiments? Please explain this more carefully.
Response: We agree with the reviewer that P. gingivalis requires both iron and porphyrin to survive. Iron is naturally present in the complex medium, enriched tryptic soy broth (eTSB), used in this study. The iron concentration of TSB medium has been previously determined at 0.74 µg/mL by atomic absorption spectrophotometry (de Oliverira Moreira L., et al., 2003 AEM) which requires approximately 500 µM dipyridyl to chelate all available iron in the medium (Scharfman AH 1996 I&I). The dipyridyl used in this study is 100 µM and the remaining iron provided by the TSB medium is sufficient to support P. gingivalis growth. […]

Compound | Kd (HusA [1]) [nM] | interaction with HusA by UV-visible absorption (HusA [4]) | also measured
CC1=Cc2cc3[n-]c(cc4[n-]c(cc5nc(cc1n2)C=C5C)c(C)c4CCC(=O)[O-])c(CCC(=O)[O-])c3C.[Fe+2].[H+].[H+] [Fe(III)DPIX, iron(III) deuteroporphyrin IX] | 220 ± 50 | – | –
Cc1ncc([N+](=O)[O-])n1CCO [Metronidazole, metronidazole] | – | – | MIC [2]: 5 to 10 µM
C=CC1=C(C)c2cc3[nH]c(cc4nc(cc5[nH]c(cc1n2)c(C)c5CCC(=O)O)C(CCC(=O)O)=C4C)c(C)c3C=C [PPIX, protoporphyrin-IX] | 1900 ± 600 | – | sensitisation of P. gingivalis cells towards metronidazole [3]: Neither PPIX nor DPIX sensitised
C=CC1=C(C)/C(=C/c2[nH]c(Cc3[nH]c(/C=C4\NC(=O)C(C)=C4C=C)c(C)c3CCC(=O)O)c(CCC(=O)O)c2C)NC1=O [bilirubin] | – | no interaction | –
C=CC1=C(C)/C(=C/C2=NC(=C\c3[nH]c(/C=C4\NC(=O)C(C)=C4C=C)c(C)c3CCC(=O)O)/C(CCC(=O)O)=C2C)NC1=O [biliverdin] | – | no interaction | –
c1ccc(-c2ccccn2)nc1 [dipyridyl, 2,2’-dipyridyl] | – | – | dipyridyl concentration at which growth recovery after starvation was observed (P. gingivalis W83): up to 200 µM; dipyridyl concentration at which P. gingivalis failed to recover (P. gingivalis W83; W83 after starvation): ≥ 500 µM
